Test results: ChEMBL document CHEMBL1201862, “PubChem BioAssay data set” (2004)
Active and inactive are the calls of the source.

Key:
[1] = molecular target: Intestinal-type alkaline phosphatase (Mus musculus, UniProt P24822); assay: PubChem AID 488785; type: functional
[2] = molecular target: T1, Replicative DNA helicase DnaB (Mycobacterium tuberculosis, UniProt P9WMR3); assay: DnaB intein splicing inhibitors, dose response, biochemical, cell-free fluorescence (AID 449749); type: functional
T1 sequence (P9WMR3 whole entry): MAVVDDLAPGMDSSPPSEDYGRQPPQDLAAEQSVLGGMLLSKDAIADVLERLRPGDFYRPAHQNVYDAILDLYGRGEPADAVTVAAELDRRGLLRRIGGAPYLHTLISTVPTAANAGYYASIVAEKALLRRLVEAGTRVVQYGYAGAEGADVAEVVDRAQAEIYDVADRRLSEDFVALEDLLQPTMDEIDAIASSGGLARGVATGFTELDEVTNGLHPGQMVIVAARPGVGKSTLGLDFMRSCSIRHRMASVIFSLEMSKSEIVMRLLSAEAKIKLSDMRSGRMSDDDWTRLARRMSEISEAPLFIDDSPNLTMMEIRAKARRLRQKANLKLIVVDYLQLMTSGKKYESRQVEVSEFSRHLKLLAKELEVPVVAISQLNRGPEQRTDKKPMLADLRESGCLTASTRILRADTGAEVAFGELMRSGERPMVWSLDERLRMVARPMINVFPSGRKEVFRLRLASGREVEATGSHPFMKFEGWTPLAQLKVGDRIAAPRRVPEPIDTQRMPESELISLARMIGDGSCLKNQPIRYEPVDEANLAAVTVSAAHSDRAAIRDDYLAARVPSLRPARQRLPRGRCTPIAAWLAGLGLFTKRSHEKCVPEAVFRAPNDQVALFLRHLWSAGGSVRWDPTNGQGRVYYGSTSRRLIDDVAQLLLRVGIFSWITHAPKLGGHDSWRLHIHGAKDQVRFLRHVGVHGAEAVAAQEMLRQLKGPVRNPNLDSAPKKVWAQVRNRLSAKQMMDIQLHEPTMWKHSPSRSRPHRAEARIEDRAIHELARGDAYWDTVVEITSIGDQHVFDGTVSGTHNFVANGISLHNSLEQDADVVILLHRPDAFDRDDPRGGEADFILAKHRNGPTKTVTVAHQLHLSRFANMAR

Protein RecA = molecular target: T2, Protein RecA (Mycobacterium tuberculosis, UniProt P9WHJ3); assay: Fluorescence Cell-Free Homogeneous Dose Retest to Identify Inhibitors of RecA-Intein Splicing Activity. [Related pubchem assays (depositor defined):AID2097, AID2223, AID489010, AID492950]; type: functional
T2 sequence (P9WHJ3 whole entry): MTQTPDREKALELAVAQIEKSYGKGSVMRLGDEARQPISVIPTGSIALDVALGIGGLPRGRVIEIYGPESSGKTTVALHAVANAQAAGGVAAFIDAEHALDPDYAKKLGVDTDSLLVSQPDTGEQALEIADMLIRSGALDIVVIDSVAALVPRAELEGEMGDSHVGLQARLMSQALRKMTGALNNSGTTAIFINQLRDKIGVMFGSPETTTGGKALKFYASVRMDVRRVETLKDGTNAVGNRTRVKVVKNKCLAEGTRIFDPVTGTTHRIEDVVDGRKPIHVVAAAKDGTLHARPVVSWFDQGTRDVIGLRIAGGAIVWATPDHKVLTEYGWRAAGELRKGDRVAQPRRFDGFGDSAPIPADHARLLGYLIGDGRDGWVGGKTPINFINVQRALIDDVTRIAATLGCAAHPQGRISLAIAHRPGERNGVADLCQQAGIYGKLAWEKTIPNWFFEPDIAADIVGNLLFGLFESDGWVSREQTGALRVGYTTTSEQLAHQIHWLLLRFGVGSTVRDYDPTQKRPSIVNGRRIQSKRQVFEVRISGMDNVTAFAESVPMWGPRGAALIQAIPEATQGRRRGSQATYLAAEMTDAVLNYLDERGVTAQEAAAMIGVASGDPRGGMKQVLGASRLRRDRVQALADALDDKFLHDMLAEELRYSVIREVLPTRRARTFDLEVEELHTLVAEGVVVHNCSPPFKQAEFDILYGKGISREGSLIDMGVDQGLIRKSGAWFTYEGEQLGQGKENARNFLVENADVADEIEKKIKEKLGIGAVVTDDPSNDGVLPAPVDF

[3] = molecular target: Intestinal-type alkaline phosphatase (Homo sapiens, UniProt P09923); assay: inhibition of human intestinal alkaline phosphatase – biochemical, dose response (AID 488876); type: functional
Sequence of Intestinal-type alkaline phosphatase (Homo sapiens, UniProt P09923) (P09923 whole entry): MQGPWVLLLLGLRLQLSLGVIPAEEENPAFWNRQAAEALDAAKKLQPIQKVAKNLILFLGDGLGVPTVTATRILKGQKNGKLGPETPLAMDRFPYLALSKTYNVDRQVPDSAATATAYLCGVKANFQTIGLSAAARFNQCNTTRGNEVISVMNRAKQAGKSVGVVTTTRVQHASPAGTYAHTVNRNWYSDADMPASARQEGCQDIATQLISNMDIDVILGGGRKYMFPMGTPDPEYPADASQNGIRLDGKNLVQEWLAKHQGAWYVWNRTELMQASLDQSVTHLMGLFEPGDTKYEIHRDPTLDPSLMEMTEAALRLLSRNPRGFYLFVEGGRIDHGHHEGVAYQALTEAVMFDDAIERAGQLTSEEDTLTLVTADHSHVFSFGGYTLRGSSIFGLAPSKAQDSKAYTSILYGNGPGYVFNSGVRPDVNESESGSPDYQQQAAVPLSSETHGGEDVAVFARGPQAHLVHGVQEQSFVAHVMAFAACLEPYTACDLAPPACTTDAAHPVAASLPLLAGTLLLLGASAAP

[4] = molecular target: T3, Alkaline phosphatase, tissue-nonspecific isozyme (Homo sapiens, UniProt P05186); assay: TNAP enzyme inhibition by screening hits, dose response, selectivity assay for mouse IAP inhibitor project, biochemical, human TNAP, uHTS hits (AID 488906); type: functional
T3 sequence (P05186 whole entry): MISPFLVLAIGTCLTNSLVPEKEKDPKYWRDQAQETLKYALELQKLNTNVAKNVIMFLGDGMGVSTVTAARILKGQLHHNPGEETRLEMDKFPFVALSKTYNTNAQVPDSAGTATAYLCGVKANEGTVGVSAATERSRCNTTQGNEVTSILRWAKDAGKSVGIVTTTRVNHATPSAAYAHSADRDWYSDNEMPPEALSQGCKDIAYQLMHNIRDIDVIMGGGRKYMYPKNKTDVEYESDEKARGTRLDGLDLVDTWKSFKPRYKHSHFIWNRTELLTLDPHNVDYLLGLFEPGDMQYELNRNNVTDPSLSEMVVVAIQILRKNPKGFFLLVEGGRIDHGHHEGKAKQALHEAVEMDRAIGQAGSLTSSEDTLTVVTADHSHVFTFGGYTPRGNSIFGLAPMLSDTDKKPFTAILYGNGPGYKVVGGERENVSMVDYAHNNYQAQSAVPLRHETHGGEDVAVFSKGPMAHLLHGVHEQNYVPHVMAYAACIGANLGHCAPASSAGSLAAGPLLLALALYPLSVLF

Large T antigen = Large T antigen (Simian virus 40, UniProt P03070); type: functional, Betapolyomavirus macacae;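 note: Confirmatory-stage PubChem screen for compounds that inhibit SV40 T antigen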
Sequence of Large T antigen (P03070 whole entry): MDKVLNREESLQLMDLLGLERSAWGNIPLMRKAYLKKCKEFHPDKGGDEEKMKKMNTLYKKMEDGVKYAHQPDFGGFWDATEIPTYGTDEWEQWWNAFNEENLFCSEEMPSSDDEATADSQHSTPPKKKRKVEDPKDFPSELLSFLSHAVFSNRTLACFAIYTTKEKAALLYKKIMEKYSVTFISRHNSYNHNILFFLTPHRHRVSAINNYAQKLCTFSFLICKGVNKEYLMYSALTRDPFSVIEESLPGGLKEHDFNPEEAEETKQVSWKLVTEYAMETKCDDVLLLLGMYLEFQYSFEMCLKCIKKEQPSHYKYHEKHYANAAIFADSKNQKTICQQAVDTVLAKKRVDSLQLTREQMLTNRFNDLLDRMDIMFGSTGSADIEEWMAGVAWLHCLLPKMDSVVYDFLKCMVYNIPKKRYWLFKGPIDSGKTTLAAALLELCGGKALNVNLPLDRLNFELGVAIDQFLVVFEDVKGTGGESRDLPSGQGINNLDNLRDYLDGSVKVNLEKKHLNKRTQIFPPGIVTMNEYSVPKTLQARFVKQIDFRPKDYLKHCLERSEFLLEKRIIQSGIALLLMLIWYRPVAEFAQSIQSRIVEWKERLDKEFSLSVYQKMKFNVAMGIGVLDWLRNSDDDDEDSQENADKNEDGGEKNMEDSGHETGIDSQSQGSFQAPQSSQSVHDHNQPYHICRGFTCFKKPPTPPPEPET

Mu-type opioid receptor = Mu-type opioid receptor (Homo sapiens, UniProt P35372); assay: (§1) Counterscreen for agonists of heterodimerization of the mu 1 (OPRM1) and delta 1 (OPRD1) opioid receptors: Luminescence-based cell-based high throughput dose response assay to identify agonists of OPRM1 homodimerization.; type: functional
Sequence of Mu-type opioid receptor (P35372 whole entry): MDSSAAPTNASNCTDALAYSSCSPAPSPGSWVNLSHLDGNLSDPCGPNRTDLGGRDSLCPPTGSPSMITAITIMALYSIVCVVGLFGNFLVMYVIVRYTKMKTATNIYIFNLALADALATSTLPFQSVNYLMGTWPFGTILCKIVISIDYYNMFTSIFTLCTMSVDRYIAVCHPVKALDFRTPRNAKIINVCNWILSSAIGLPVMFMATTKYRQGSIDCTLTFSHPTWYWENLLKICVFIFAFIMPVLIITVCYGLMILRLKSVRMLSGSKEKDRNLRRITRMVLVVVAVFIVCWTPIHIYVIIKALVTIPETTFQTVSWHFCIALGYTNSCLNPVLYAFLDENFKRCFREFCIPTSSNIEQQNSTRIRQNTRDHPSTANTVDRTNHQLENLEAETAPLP

[5] = molecular target: 5-hydroxytryptamine receptor 5A (Homo sapiens, UniProt P47898); assay: Counterscreen for agonists of OPRM1-OPRD1 heterodimerization: luminescence-based cell-based high throughput dose response assay to identify agonists of 5-hydroxytryptamine (serotonin) 5A receptor (HTR5A). [Related pubchem assays (depositor defined):AID504326, AID504355, AID504692, AID504904, AID504905]; type: functional
Sequence of 5-hydroxytryptamine receptor 5A (P47898 whole entry): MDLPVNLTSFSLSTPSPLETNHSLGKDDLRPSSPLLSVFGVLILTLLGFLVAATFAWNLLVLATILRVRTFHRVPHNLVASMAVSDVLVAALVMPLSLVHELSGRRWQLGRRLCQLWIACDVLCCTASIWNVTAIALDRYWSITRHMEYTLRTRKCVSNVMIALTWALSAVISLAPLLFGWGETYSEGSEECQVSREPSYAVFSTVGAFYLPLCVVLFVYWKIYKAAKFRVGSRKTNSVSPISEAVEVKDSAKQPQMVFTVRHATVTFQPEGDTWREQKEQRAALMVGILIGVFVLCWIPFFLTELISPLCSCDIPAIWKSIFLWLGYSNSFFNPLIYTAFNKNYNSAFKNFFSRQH

[6] = molecular target: Opioid receptors; mu & delta (Homo sapiens, UniProt P41143+P35372); assay: OPRM1-OPRD1 heterodimer agonist potency – cell-based, luminescence, dose response (AID 588407); type: functional
[7] = molecular target: Delta-type opioid receptor (Homo sapiens, UniProt P41143); assay: as §1, with “of OPRD1” for “of OPRM1”, “homodimerization. [Related pubchem assays (depositor defined):AID504326, AID504355, AID504692, AID504904, AID504905]” for “homodimerization.”; type: functional
Sequence of Delta-type opioid receptor (P41143 whole entry): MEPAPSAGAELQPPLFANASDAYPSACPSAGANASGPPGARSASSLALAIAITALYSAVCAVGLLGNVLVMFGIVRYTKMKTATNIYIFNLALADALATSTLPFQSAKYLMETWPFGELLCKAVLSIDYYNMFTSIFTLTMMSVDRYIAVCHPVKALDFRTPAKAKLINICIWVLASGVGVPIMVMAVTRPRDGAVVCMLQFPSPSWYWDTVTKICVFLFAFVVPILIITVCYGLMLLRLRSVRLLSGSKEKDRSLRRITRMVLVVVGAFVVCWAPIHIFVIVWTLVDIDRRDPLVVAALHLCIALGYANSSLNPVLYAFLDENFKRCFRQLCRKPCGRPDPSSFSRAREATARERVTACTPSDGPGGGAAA

Sequence of Intestinal-type alkaline phosphatase (Mus musculus, UniProt P24822) (P24822 whole entry): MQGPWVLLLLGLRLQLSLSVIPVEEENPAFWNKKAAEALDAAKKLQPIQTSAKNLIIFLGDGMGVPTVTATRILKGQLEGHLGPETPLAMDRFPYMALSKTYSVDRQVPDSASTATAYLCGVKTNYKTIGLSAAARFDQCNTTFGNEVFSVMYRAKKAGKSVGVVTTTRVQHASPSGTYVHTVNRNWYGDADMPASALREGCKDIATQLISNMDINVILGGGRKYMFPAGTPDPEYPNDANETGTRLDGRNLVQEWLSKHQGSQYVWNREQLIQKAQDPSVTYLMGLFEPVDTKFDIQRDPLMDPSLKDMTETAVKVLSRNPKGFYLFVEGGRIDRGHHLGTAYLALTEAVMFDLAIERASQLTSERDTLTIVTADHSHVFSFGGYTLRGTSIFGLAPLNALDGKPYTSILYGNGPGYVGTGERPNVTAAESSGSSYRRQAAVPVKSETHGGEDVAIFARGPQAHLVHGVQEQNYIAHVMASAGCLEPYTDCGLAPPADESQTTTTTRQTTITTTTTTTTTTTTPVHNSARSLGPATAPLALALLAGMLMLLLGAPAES

Row | Structure (SMILES) | IC50 [1] | AC50 [2] | EC50 (Protein RecA) | IC50 [3] | IC50 [4] | IC50 (Large T antigen) | EC50 (Mu-type opioid receptor) | EC50 [5] | EC50 [6] [µM] | EC50 [7]
1 | Oc1cc(O)c2c(c1)O[C@H](c1ccc(O)c(O)c1)[C@@H](O)C2 | 15.5 µM (active) | 22.2 µM (active) | 4.11 µM (active) | > 100 µM (inactive) | 37.1 µM (active) | 11.4 µM (active) |  |  |  | 
2 | c1ccc(C2[C@H]3CN(Cc4cccnc4)[C@H](c4ccccc4)C34CC2(c2cccnc2)C4)cc1 (some centres not stated) |  | 3.72 µM (active) | 16.7 µM (active) |  |  |  | > 92.5 µM (inactive) | > 92.5 µM (inactive) | > 3.424 | 3.21 µM (active)
